{
  "source": "paper PMC8402619",
  "about": "(Viruses, 2021)",
  "key": {"[1]": {"assay": "Distribution between red blood cells and plasma in human blood", "format": "in vitro ADME"}, "[2]": {"target": "T1, CYP1A2 (Homo sapiens, UniProt P05177)", "T1 sequence (P05177 1-516)": "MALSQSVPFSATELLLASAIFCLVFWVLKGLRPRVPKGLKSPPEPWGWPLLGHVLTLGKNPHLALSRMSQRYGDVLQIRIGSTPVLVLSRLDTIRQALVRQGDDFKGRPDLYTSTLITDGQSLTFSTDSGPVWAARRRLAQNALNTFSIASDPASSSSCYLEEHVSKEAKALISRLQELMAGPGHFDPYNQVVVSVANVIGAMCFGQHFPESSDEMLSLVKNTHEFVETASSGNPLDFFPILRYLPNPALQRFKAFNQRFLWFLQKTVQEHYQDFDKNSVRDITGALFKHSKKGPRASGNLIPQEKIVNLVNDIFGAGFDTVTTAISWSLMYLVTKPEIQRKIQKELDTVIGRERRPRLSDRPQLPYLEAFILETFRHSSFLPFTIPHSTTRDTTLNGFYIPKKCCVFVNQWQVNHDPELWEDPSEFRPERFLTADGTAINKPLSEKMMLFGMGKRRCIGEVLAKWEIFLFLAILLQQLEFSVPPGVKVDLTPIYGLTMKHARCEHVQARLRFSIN", "assay": "Reversible CYP inhibition in pooled human liver microsomes", "format": "in vitro ADME"}, "[3]": {"target": "T2, UGT1A1 (Homo sapiens, UniProt P22309)", "T2 sequence (P22309 26-533)": "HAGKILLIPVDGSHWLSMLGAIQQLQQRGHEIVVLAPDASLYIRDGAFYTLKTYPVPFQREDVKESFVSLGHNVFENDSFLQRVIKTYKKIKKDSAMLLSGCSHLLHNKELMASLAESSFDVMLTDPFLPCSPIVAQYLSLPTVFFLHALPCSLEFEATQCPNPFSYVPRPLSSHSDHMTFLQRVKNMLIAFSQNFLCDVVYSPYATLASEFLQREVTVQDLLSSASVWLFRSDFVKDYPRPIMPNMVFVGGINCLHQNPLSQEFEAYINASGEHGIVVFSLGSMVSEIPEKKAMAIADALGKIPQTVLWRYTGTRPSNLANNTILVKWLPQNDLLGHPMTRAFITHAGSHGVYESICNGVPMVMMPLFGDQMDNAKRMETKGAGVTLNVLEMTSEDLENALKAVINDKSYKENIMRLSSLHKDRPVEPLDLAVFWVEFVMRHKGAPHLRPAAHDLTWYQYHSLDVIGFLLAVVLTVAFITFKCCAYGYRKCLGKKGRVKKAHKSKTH", "format": "in vitro ADME"}, "[4]": {"assay": "Plasma protein binding by equilibrium dialysis, rat plasma", "format": "in vitro ADME", "settings": "pH 7.4"}, "[5]": {"target": "T3, MATE1 (Homo sapiens, UniProt Q96FL8)", "T3 construct": "expressed in transfected cells; host or cells: CHO-K1", "T3 sequence (Q96FL8 1-570)": "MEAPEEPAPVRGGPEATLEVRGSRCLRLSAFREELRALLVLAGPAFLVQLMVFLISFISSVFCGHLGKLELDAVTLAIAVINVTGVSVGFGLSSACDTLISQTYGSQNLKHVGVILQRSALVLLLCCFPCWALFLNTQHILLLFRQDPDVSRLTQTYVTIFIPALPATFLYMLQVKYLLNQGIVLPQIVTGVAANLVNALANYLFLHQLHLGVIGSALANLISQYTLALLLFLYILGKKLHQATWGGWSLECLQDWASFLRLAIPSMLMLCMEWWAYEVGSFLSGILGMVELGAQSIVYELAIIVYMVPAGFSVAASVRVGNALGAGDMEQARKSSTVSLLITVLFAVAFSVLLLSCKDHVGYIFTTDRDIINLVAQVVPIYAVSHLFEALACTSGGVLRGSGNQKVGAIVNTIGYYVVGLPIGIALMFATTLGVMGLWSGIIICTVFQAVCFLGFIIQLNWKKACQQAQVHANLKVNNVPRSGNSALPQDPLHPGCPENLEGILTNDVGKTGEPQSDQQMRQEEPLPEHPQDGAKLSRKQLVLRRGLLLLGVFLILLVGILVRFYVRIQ", "assay": "Islatravir uptake as substrate, CHO-K1 vs CHO-K1-MATE1 cells", "format": "in vitro ADME"}, "[6]": {"target": "T4, CYP2C8 (Homo sapiens, UniProt P10632)", "T4 sequence (P10632 1-490)": "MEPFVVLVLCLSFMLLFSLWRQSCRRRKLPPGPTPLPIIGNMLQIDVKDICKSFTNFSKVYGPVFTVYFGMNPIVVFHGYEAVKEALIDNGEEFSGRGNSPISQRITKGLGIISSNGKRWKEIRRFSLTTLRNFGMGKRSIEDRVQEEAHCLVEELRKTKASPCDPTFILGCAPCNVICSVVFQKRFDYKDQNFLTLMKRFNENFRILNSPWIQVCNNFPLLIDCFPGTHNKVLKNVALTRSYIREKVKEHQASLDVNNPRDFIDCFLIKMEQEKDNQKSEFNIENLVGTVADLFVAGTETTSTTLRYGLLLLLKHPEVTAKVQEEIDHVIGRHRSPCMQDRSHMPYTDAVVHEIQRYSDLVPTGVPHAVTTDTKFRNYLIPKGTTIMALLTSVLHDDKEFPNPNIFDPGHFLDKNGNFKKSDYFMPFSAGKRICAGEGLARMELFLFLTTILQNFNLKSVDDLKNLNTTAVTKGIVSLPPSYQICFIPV", "assay": "Reversible CYP inhibition in pooled human liver microsomes", "format": "in vitro ADME"}, "[7]": {"target": "T5, BSEP (Homo sapiens, UniProt O95342)", "T5 construct": "purchased Thermo Fisher Scientific; host or cells: Sf9", "T5 sequence (O95342 whole entry)": "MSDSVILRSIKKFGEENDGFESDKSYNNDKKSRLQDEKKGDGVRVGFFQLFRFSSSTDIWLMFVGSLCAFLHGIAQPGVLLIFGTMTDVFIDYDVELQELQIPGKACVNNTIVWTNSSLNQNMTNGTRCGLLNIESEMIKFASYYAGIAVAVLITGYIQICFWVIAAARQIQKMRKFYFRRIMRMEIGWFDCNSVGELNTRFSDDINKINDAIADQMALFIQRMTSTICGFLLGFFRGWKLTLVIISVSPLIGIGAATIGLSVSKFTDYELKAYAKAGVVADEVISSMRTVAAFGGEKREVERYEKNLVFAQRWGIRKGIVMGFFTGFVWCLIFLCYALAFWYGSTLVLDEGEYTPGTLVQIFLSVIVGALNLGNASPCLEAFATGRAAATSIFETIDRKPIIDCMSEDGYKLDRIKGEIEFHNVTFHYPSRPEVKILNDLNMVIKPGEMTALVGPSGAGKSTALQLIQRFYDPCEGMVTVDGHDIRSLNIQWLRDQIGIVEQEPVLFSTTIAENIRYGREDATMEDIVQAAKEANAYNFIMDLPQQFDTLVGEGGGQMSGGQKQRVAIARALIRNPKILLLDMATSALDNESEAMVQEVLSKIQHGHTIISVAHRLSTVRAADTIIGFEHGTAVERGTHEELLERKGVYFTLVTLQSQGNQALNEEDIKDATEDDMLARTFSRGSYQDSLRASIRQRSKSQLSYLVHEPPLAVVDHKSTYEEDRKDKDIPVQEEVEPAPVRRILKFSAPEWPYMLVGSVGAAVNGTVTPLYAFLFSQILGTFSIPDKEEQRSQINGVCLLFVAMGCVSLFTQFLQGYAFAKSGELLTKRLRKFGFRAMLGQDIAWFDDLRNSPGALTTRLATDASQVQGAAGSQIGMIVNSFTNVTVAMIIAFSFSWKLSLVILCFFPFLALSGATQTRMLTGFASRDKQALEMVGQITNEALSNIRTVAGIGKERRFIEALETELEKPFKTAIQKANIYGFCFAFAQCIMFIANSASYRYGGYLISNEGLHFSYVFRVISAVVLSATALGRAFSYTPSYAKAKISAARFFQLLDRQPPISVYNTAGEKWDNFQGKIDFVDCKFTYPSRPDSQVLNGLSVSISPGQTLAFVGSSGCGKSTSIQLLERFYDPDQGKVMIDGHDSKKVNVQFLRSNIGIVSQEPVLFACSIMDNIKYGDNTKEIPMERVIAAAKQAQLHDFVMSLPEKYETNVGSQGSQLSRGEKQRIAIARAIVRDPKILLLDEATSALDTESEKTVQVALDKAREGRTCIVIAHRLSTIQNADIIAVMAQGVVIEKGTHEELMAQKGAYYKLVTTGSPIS", "assay": "Inhibition of ATP-dependent probe uptake in Sf9 membrane vesicles", "format": "in vitro ADME", "settings": "BSEP-mediated ATP-dependent uptake of taurocholic acid"}, "[8]": {"assay": "Renal clearance after 1 mg/kg intravenous, mouse", "format": "in vivo, male CD-1 mice", "settings": "1 mg/kg intravenously"}, "[9]": {"tested_on": "HIV-1", "settings": "cited from earlier work"}},
  "data": [
    {"smiles": "C#C[C@]1(CO)O[C@@H](n2cnc3c(N)nc(F)nc32)C[C@@H]1O", "note": "[Islatravir, 4′-Ethynyl-2-fluoro-2′-deoxyadenosine]", "values": [
      {"measurement": "concentration dependence of blood:plasma partitioning", "setting": "[1]; 0.01 to 10 µM", "result": "did not exhibit concentration-dependent partitioning"},
      {"measurement": "blood plasma ratio at 60 min, 0.1 µM", "setting": "[1]; whole blood, human blood, 0.1 µM, ± standard error, read-out: mean blood:plasma concentration ratio", "result": 1.3},
      {"measurement": "DDI Potential", "setting": "[2]; CYP1A2 reversible inhibition, FDA, EMA, PMDA guidance", "result": "Low risk"},
      {"measurement": "Maximum Unbound Plasma Concentration (Imax,u) to Ki,u Ratio", "setting": "[2]; CYP1A2 reversible, 60 mg, Cmax 1.01 µM, fu,p 0.96, Ki,u = IC50/2", "result": "<0.019", "unit": "µM"},
      {"measurement": "IC50", "setting": "[2]; reversible, CYP1A2 phenacetin O-deethylation, read-out: Islatravir IC50", "result": "> 100", "unit": "µM"},
      {"measurement": "DDI Potential", "setting": "[3]; UGT1A1 reversible inhibition, FDA, EMA, PMDA guidance", "result": "Low risk ^g"},
      {"measurement": "Intestinal Concentration (Igut) to Ki,u Ratio", "setting": "[3]; UGT1A1 reversible, Igut = 60 mg/250 mL = 818 µM", "result": "<16.4", "unit": "µM"},
      {"measurement": "IC50", "setting": "[3]; reversible, UGT1A1 estradiol 3-glucuronidation, read-out: Islatravir IC50", "result": "> 100", "unit": "µM"},
      {"measurement": "fraction unbound at 24 h, 0.1 µM", "setting": "[4]", "result": "> 0.84"},
      {"measurement": "Islatravir Uptake Transporter-Expressing Cells", "setting": "[5]; CHO-K1-MATE1, 2 µM [14C]islatravir, 20 min, mean ± SD, n = 3", "result": "2.94 ± 0.20", "unit": "pmole/10^6 Cells"},
      {"measurement": "Fold-Difference", "setting": "[5]; MATE1, uptake into transporter-expressing cells to control cells, 20 min", "result": 1.01},
      {"measurement": "Islatravir Uptake Control Cells", "setting": "[5]; MATE1 row, CHO-K1 control cells, 2 µM [14C]islatravir, 20 min, mean ± SD, n = 3", "result": "2.90 ± 0.27", "unit": "pmole/10^6 Cells"},
      {"measurement": "Conclusions", "setting": "[5]; MATE1 substrate assessment", "result": "Non-substrate"},
      {"measurement": "DDI Potential", "setting": "[6]; CYP2C8 reversible inhibition, FDA, EMA, PMDA guidance", "result": "Low risk"},
      {"measurement": "Maximum Unbound Plasma Concentration (Imax,u) to Ki,u Ratio", "setting": "[6]; CYP2C8 reversible, 60 mg, Cmax 1.01 µM, fu,p 0.96, Ki,u = IC50/2", "result": "<0.019", "unit": "µM"},
      {"measurement": "IC50", "setting": "[6]; reversible, CYP2C8 amodiaquine N-deethylation, read-out: Islatravir IC50", "result": "> 100", "unit": "µM"},
      {"measurement": "IC50", "setting": "[7]", "result": "> 100", "unit": "µM"},
      {"measurement": "Renal Excretion (% Total Plasma Clearance)", "setting": "[8]", "result": 61, "unit": "%"},
      {"measurement": "CL renal", "setting": "[8]; male, CD-1, plasma and urine, iv, urine 0-24 h", "result": 15.4, "unit": "mL/min/kg"},
      {"measurement": "tolerability", "setting": "[9]; participants with and without HIV across a range of doses", "result": "generally well tolerated"},
      {"measurement": "duration of viral load reduction maintained", "setting": "[9]; single administration at a dose as low as 0.5 mg", "result": 7, "unit": "days"},
      {"measurement": "duration of viral load suppression", "setting": "[9]; treatment-naïve PLWH, oral doses between 0.5 and 30 mg", "result": "at least 7 days"}
    ]}
  ]
}
